Entries after “also recorded” stand apart in the source; their conditions may differ. Marks after values point to notes of the source that are not given here.
How the values were obtained:
Format in all cases: cell-based, human
HBEC-57KT cells [1] = test: Soft agar assay (anchorage independent growth, transformation) of HBEC-57KT cells; details: for transformation, ability to grow in soft agar: 2, 10, 50, or 100 nM for 27 weeks, FIG. 3; for colony formation / transformation in soft agar: 35 weeks of chronic treatment; for # Established: Experiment 2, picked clones established in culture
Source text: (§1) Three immortalized human bronchial epithelial cell lines (HBEC-57KT, -65KT, and -66KT) were used (see, Ramirez et al., Cancer Res., 2004, 64, 9027-34). […] Cells were immortalized by over-expressing Cdk4 and human telomerase reverse transcriptase (hTERT) to emulate two of the earliest events in lung cancer pathogenesis: abrogation of the p16/RB cell cycle checkpoint pathway and bypass of replicative senescence. HBEC-57KT, -65KT, and -66KT cells were maintained in keratinocyte serum-free (KSF) media containing 50 μg/ml bovine pituitary extract and 5 ng/ml epidermal growth factor. Initially, cells were chronically treated with 0.1% DMSO (vehicle) or 100 nM E2, 4-OHE1 or 4-OHE2. Subsequently, a broader dose range was tested, including 2, 10, 50, or 100 nM […]1, or 2-OHE2. Exposure times ranged from a minimum of 18 weeks and a maximum of 40 weeks. An aliquot from each cell line and treatment was banked in liquid nitrogen every 1-2 weeks. […] Natl. Acad. Sci. USA, 1978, 75, 4001-5). Briefly, each well of a 12-well plate was coated with 0.6% agarose/KSF media. Wells were overlaid with 0.3% agarose/KSF media containing 5000 HBEC-KT cells. RKO colon carcinoma cells were included as a positive control. Each assay was performed in triplicate. After 4-6 weeks, plates were either stained with crystal violet for counting or used to isolate viable clones. Transformed clones were picked using a p200 pipette tip, placed back in culture under pre-treatment conditions in KSF media, and expanded for future analyses.

HBEC-65KT cells [2] = test: Soft agar assay (anchorage independent growth, transformation) of HBEC-65KT cells; details: for # Established: Experiment 2, picked clones established in culture
Source text: as §1

HBEC-66KT cells = test: Soft agar assay (anchorage independent growth, transformation) of HBEC-66KT cells; details: chronic treatment, data not shown
Source text: Three immortalized human bronchial epithelial cell lines (HBEC-57KT, -65KT, and -66KT) were used (see, Ramirez et al., Cancer Res., 2004, 64, 9027-34). […] Cells were immortalized by over-expressing Cdk4 and human telomerase reverse transcriptase (hTERT) to emulate two of the earliest events in lung cancer pathogenesis: abrogation of the p16/RB cell cycle checkpoint pathway and bypass of replicative senescence. HBEC-57KT, -65KT, and -66KT cells were maintained in keratinocyte serum-free (KSF) media containing 50 μg/ml bovine pituitary extract and 5 ng/ml epidermal growth factor. Initially, cells were chronically treated with 0.1% DMSO (vehicle) or 100 nM E2, 4-OHE1 or 4-OHE2. Subsequently, a broader dose range was tested, including 2, 10, 50, or 100 nM […]1, or 2-OHE2. Exposure times ranged from a minimum of 18 weeks and a maximum of 40 weeks. An aliquot from each cell line and treatment was banked in liquid nitrogen every 1-2 weeks. At specific timepoints (18, 24 and 34 weeks post-treatment), each treated cell line was assayed for transformation by assessing anchorage independent growth in soft agar according to the method of de Larco and Todaro (see, de Larco et al., Proc. Natl. Acad. Sci. USA, 1978, 75, 4001-5). Briefly, each well of a 12-well plate was coated with 0.6% agarose/KSF media. Wells were overlaid with 0.3% agarose/KSF media containing 5000 HBEC-KT cells. RKO colon carcinoma cells were included as a positive control. Each assay was performed in triplicate. After 4-6 weeks, plates were either stained with crystal violet for counting or used to isolate viable clones. Transformed clones were picked using a p200 pipette tip, placed back in culture under pre-treatment conditions in KSF media, and expanded for future analyses.

HBEC-57KT cells [3] = test: Comet assay of DNA damage in HBEC-57KT cells; details: HBEC-57KT (high-activity CYP1B1, low-activity COMT); short-term treatment; FIG. 4
Experimental: (§2) DNA was extracted from expanded clones for sequencing. The mutation status of 50 oncogenic driver genes was examined in transformed cells by next-gen sequencing using an AmpliSeq Illumina for Cancer Hotspot Panel v2. Data were analyzed using Illumina software. DNA damage induced by short-term treatment with estrogens was measured using the Comet assay (see, Mozaffarieh et al., Mol. Vis., 2008, 14, 1584-8). Other assays, however, may be used as desired.

HBEC-65KT cells [4] = test: Comet assay of DNA damage in HBEC-65KT cells; details: HBEC-65KT (high-activity CYP1B1, low-activity COMT); short-term treatment; FIG. 4
Experimental: as §2

[5] = Experiment 2, chronic treatment, 100 nM, soft agar
[6] = Experiment 3, 18 weeks treated, colonies diffuse, did not grow once picked (not fully transformed)

SMILES | transformation, ability to grow in soft agar (HBEC-57KT cells [1]) | colony formation / transformation in soft agar (HBEC-57KT cells [1]) | # Colonies (HBEC-57KT cells [1]; [5]) | # Established (HBEC-57KT cells [1]) | # Colonies (HBEC-57KT cells [1]; Experiment 3, 35 weeks treated) | # Colonies (HBEC-65KT cells [2]; [5]) | # Established (HBEC-65KT cells [2]) | # Colonies (HBEC-65KT cells [2]; Experiment 3, 35 weeks treated) | transformation (HBEC-66KT cells) | # Colonies (HBEC-57KT cells [1]; [6]) | DNA damage, comet tail moment vs. DMSO (HBEC-57KT cells [3]) | DNA damage, comet tail moment vs. DMSO (HBEC-65KT cells [4]) | colony formation in soft agar (HBEC-65KT cells [2]; 35 weeks of chronic treatment) | # Colonies (HBEC-65KT cells [2]; Experiment 3, 18 weeks treated)
C[C@]12CC[C@@H]3c4cc(O)c(O)cc4CC[C@H]3[C@@H]1CCC2=O [2-OHE1] | can transform HBEC-57KT cells |  |  |  |  |  |  |  |  |  |  |  |  | 
C[C@]12CC[C@@H]3c4cc(O)c(O)cc4CC[C@H]3[C@@H]1CC[C@@H]2O [2-OHE2] | can transform HBEC-57KT cells |  |  |  |  |  |  |  |  |  |  |  |  | 
C[C@]12CC[C@@H]3c4ccc(O)c(O)c4CC[C@H]3[C@@H]1CCC2=O [4-OHE1] | can transform HBEC-57KT cells | also transformed HBEC-57KT cells | 0 | 0 | 5 (small) | 0 | 0 | 0 | None of the tested treatments; also recorded: negative for transformation |  |  |  |  | 
C[C@]12CC[C@@H]3c4ccc(O)c(O)c4CC[C@H]3[C@@H]1CC[C@@H]2O [4-OHE2] | can transform HBEC-57KT cells | efficient colony formation | 40 | 11 | 54 | 0 | 0 | 0 | None of the tested treatments; also recorded: negative for transformation | 4* | induce DNA damage | induce DNA damage |  | 
C[C@]12CC[C@@H]3c4ccc(O)cc4CC[C@H]3[C@@H]1CC[C@@H]2O [E2, 17β estradiol] | can transform HBEC-57KT cells | low level colony formation | 13 | 6 | 30 | 11 | 4 | 34 | None of the tested treatments; also recorded: negative for transformation | 0 | induce DNA damage | induce DNA damage | low level colony formation | 0
